Columns and labels:
sheep ENaC = experiment: Ussing chamber short-circuit current (Isc) in sheep bronchial epithelial ALI cultures; assay type: cell-based; conditions: bronchial epithelial cells from healthy sheep, read-out: potency (IC50) on inhibition of ENaC (EC50 in Fig. 1B legend)
Description: (§1) Normal human bronchial epithelial cell (HBEC) cultures from healthy donors were procured from MatTek Corporation (Ashland, MA), grown at an ALI on Transwell permeable supports (0.4 µm polycarbonate membrane, 12 mm insert, and Costar Corning), and used to test the in vitro potency of AZD5634. Using the same protocol, sheep ALI cultures were prepared from primary bronchial epithelial cells (native sheep tracheas were obtained from Öströö Sheep Farm, Sweden, and internally processed at AstraZeneca R&D, Gothenburg, Sweden) to validate AZD5634 potency at sheep ENaC. Experiments were performed using modified Ussing chambers containing carboxygenated Krebs solution (95% O2-5% CO2) at 37°C. Cell layers were allowed to equilibrate before being voltage-clamped at 0 mV, and then briefly clamped at 10 mV to assess transepithelial electrical resistance.
All data are presented as means ± SE. Values of n refer to the number of cultures used in each group as appropriate. For normally distributed data, paired or unpaired Student’s t tests were used. For data that were not normally distributed, Mann–Whitney U test and Wilcoxon-matched pairs test were used. […] From these curves, pEC50 and Emax values were taken from which mean values were calculated.

ENaC = molecular target: T1, ENaC (Homo sapiens, UniProt P37088+P51168+P51170); experiment: Ussing chamber short-circuit current (Isc) in normal HBEC ALI cultures from healthy donors; assay type: cell-based
T1 construct: host or cells: primary normal human bronchial epithelial cells, ALI culture
T1 sequence (P37088 1-669): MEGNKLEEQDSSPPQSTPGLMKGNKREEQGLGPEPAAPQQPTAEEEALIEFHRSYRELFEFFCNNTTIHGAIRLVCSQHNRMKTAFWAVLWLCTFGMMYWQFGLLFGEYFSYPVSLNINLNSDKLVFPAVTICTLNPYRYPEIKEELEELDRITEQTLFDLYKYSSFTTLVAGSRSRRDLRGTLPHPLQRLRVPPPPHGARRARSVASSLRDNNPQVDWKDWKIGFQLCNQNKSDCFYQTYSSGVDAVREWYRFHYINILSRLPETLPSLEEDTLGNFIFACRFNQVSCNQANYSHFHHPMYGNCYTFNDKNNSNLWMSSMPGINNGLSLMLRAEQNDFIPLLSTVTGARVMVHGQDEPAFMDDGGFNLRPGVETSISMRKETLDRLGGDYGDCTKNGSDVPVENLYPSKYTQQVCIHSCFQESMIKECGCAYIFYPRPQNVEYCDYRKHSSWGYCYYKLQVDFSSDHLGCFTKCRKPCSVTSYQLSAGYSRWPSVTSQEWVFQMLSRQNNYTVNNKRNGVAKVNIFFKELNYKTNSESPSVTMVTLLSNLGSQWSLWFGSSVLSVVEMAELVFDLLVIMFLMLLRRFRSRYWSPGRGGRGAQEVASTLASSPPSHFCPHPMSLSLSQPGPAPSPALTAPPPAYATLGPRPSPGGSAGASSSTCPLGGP
T1 sequence (P51168 1-640): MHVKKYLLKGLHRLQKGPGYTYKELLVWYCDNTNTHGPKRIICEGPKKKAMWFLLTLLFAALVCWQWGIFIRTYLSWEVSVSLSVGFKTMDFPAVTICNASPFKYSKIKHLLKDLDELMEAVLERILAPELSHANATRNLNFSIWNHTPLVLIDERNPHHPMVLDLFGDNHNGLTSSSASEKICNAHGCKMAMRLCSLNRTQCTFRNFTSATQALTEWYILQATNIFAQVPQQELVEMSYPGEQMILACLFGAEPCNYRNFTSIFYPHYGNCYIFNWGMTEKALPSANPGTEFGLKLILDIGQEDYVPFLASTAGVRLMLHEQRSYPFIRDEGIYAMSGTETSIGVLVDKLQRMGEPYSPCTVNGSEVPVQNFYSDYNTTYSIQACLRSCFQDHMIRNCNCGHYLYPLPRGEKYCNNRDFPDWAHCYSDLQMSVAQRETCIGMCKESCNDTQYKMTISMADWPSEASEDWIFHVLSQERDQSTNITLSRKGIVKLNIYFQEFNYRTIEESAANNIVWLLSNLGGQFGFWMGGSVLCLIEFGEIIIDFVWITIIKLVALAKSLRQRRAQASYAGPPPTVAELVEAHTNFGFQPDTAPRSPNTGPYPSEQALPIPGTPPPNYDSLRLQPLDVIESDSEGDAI
T1 sequence (P51170 1-649): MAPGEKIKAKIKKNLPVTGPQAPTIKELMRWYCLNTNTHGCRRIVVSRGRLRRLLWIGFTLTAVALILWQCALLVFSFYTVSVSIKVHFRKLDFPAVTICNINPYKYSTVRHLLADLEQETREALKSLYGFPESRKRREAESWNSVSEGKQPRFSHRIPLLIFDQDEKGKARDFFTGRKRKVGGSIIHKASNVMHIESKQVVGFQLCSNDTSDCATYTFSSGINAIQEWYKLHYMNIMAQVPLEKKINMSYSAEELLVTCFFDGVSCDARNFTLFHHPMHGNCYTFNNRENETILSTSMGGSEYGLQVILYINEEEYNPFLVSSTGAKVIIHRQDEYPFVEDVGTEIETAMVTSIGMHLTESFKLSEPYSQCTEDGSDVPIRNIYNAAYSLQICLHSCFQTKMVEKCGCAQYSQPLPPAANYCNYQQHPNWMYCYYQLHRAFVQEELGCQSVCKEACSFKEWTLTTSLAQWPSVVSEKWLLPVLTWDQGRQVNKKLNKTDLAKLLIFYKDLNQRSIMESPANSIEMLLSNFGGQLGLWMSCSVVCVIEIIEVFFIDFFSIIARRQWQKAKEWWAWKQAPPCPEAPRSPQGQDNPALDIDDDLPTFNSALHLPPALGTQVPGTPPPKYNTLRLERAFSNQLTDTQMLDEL
Description: as §1
All data are presented as means ± SE. Values of n refer to the number of cultures used in each group as appropriate. For normally distributed data, paired or unpaired Student’s t tests were used. For data that were not normally distributed, Mann–Whitney U test and Wilcoxon-matched pairs test were used. For comparisons of multiple groups, ANOVA tests were used followed by Tukey–Kramer multiple comparisons test (parametric) or ANOVA followed by Kruskal–Wallis test (nonparametric). For experiments using primary HBECs, a minimum of four different donors supplied cultures for each experiment. For the Ussing chamber data, unconstrained concentration–response curves were fitted using an in-house Microsoft Excel add-in package by nonlinear, four parameter, logistic regression analysis. From these curves, pEC50 and Emax values were taken from which mean values were calculated.

AZD5634
IC50 (sheep ENaC): 5.5 nM
additional effect on Isc when benzamil was added (ENaC; benzamil 10 µM on final response plateau): No additional effect
potency of inhibition of amiloride-sensitive current (Isc) relative to amiloride (ENaC; non-CF and CF airway cells): 2 to 3 logs
IC50 (ENaC; normal HBEC ALI cultures, normalized to 10 µM benzamil = 100%, read-out: IC50 for decrease in Isc (EC50 in Fig. 1A legend)): 3.8 nM
potency shift versus benzamil (ENaC; normal HBEC cultures, Isc): 1 log unit

Source: publication PMC9602792, “Preclinical evaluation of the epithelial sodium channel inhibitor AZD5634 and implications on human translation” (American Journal of Physiology - Lung Cellular and …, 2022)
